These are literature values, as cited in patent US9555003B2, “Oral solid formulation of compound anti-tubercular drug and preparation method thereof” (priority 2011, dated 2017).

≈ marks a conversion by molar mass, not a printed value.

Test in series [1]: not given
This is another data set of the same source.

For the compound `CC[C@H](CO)NCCN[C@H](CC)CO.Cl.Cl` [Ethambutol hydrochloride], the “solubility in water” value is listed as “easily soluble”.

For `NNC(=O)c1ccncc1` [Isoniazid, 4-pyridylcarbonylhydrazine], the “solubility in ethanol” value was “slightly soluble”, the “solubility in ethyl ether” value is listed as “very slightly soluble” and the “solubility in water” value is “easily soluble”. In series [1] (in vivo), the Vd is 0.61 ± 0.11 L/kg and the protein binding rate entry is on record as “very low”. In addition, in series [1] (oral), the oral absorption rate is listed as 90% and the “time to peak serum drug concentration after administration” value was 1 to 2 h.

Take `NC(=O)c1cnccn1` [Pyrazinamide]: the “solubility in ethanol” value is reported as “slightly soluble”, the “solubility in ethyl ether” value is “very slightly soluble” and the “solubility in water” value is “slightly soluble”. Also, the “intra-cellular concentration for inhibiting tubercle bacillus relative to extracellular concentration” value with tubercle bacillus (folds lower than the extracellular concentration) was 10 folds. In the series on tubercle bacillus (tubercle bacillus), the “concentration at which tubercle bacillus is eliminated” value was 50 µg/mL and the minimum inhibitory concentration was 12.5 µg/mL (≈ 102 µM).

Consider `CO[C@H]1/C=C/O[C@@]2(C)Oc3c(C)c(O)c4c(O)c(c(/C=N/N5CCN(C)CC5)c(O)c4c3C2=O)NC(=O)/C(C)=C\C=C\[C@H](C)[C@H](O)[C@@H](C)[C@@H](O)[C@@H](C)[C@H](OC(C)=O)[C@@H]1C` [Rifampicin], for which the “solubility in water” value was “poorly soluble”.
